Source: patent US10286084B2, “Compositions for the inactivation of virus replication and methods of making and using the same” (priority 2014, dated 2019)

Assays:
Format in all cases: cell-based, human
[1] = tested on: retinoblastoma (Rb) protein; assay: Western blot and pRB quantification in transfected HeLa cells
Experimental: (§1) Phenotypic analysis of RGNs in HeLa was performed using the Fugene6 transfection reagent as per the manufacturer's protocol. Cells were plated at 2.5×10^5 cells per well in 6-well plates and transfected with a 3 to 1 ratio of RGN expression vector to pLCE (a GFP-expressing plasmid included to determine transfection efficiency). SiHa cells were transfected with HPV-16-specific RGN expression vectors using Lipofectamine3000 (Clontech) using the manufacturer's protocol. Cells were then harvested and lysed in SDS/β-mercaptoethanol protein lysis buffer 48 hours post transfection. Lysates were subjected to electrophoresis on 4-20% SDS-polyacrylamide gels (Bio-Rad) and transferred to nitrocellulose membranes. The membranes were then probed in 5% milk-PBS-T (PBS, 0.1% Tween 20, 0.5% bovine serum albumin) with the following antibodies: anti-Flag (Sigma F1804), a rabbit Rev polyclonal antiserum (Malim et al., 1989), anti-β-actin (Santa Cruz S.C.-47778), anti-p53 (Santa Cruz S.C.-126), anti-p21 (Santa Cruz S.C.-397), and anti-Rb (BD Pharmigen 554136). The membranes were washed in PBS-T, incubated with a species-specific secondary antibody, and then washed again in PBS-T. The membranes were incubated with Western Bright Sirius Western blot detection kit (Advansta) and signals captured using GeneSnap and quantified using GeneTools (Syngene). […]

[2] = tested on: p53 and p21 expression; assay: Western blot of transfected HeLa cells for p53 and p21; conditions: Spy Cas9, 48 h post-transfection
Experimental: as §1

[3] = tested on: p53 effector protein p21; assay: Western blot of transfected SiHa cells for p21; conditions: SiHa (HPV-16) cells, Spy Cas9
Experimental: as §1, with “The membranes were then probed in 5% milk-PBS-T (PBS, 0.1% Tween 20, 0.5% bovine serum albumin) with the following antibodies: anti-Flag (Sigma F1804), a rabbit Rev polyclonal antiserum (Malim et al., 1989), anti-β-actin (Santa Cruz S.C.-47778), anti-p53 (Santa Cruz S.C.-126), anti-p21 (Santa Cruz S.C.-397), and anti-Rb (BD Pharmigen 554136).” left out
All the work described thus far used the HPV-18 transformed cervical carcinoma cell line HeLa. To extend these studies, we also analyzed the human SiHa cervical carcinoma cell line, which is transformed by HPV-16 (Seedorf et al., 1987), using sgRNAs specific for HPV-16 E6 and E7, which differ in sequence from HPV-18 E6 and E7. […]

| Substance | increase in Rb expression normalized to β-actin internal control ([1]; Spy Cas9, 48 h post-transfection) [fold] | increase in Rb expression over the control, decrease of Cas9 expression taken into account ([1]; Spy Cas9, p=0.011) [fold] | p53 and p21 expression [2] | p21 expression [3] |
| --- | --- | --- | --- | --- |
| E7 sgRNA1: Spy Cas9 sgRNA for HPV-18 E7, GGAGCAATTAAGCGACTCAG; SEQ ID NO: 10 (expressed or natural sequence) | 1.4±0.03 | 5.54±1.42 |  |  |
| E6 sgRNA1: Spy Cas9 sgRNA for HPV-18 E6, GGCGCTTTGAGGATCCAACA; SEQ ID NO: 8 (expressed or natural sequence) |  |  | specific induction of both p53 and p21 expression | failed to induce p21 expression |
